From patent US20260015342A1, “HERBICIDAL PYRIMIDINONE DERIVATIVES” (SYNGENTA CROP PROTECTION AG, priority 2022, published 2026)

Experiments:
Assay type in all cases: in vivo
Conditions in all cases: 250 g/ha, evaluated after 13 days
[1] = tested on: DIGSA; assay: Post-emergence biological efficacy, glasshouse
Description: (§1) Seeds of weeds and/or crops were sown in standard soil in pots. After cultivation for 14 days under controlled conditions in a glasshouse (at 24/19° C., day/night; 16 hours light), the plants were sprayed with an aqueous spray solution derived from the formulation of the technical active ingredient in a small amount of acetone and a special solvent and emulsifier mixture referred to as IF50 (11.12% Emulsogen EL360 TM+44.44% N-methylpyrrolidone+44.44% Dowanol DPM glycol ether), to create a 50 g/I solution which was then diluted using 0.2% Genapol X080 as diluent to give the desired final dose of test compound.
(§2) The test plants were then grown under controlled conditions in the glasshouse (at 24/18° C., day/night; 15 hours light; 50% humidity) and watered twice daily. After 13 days the test was evaluated (100=total damage to plant; 0=no damage to plant).

[2] = tested on: EPHHL; assay: Post-emergence biological efficacy, glasshouse
Description: as §1, §2

[3] = tested on: ECHCG; assay: Post-emergence biological efficacy, glasshouse
Description: as §1, §2

[4] = tested on: IPOHE; assay: Post-emergence biological efficacy, glasshouse
Description: as §1, §2

[5] = tested on: ELEIN; assay: Post-emergence biological efficacy, glasshouse
Description: as §1, §2

[6] = tested on: LOLPE; assay: Post-emergence biological efficacy, glasshouse
Description: as §1, §2

[7] = tested on: SETFA; assay: Post-emergence biological efficacy, glasshouse
Description: as §1, §2

[8] = tested on: AMAPA; assay: Post-emergence biological efficacy, glasshouse
Description: as §1, §2

[9] = tested on: CHEAL; assay: Post-emergence biological efficacy, glasshouse
Description: as §1, §2

[10] = tested on: EPHHL; assay: Pre-emergence biological efficacy, glasshouse
Description: as §1, with “one day” for “14 days”
(§3) The test plants were then grown under controlled conditions in the glasshouse (at 24/18° C., day/night; […]; 50% humidity) and watered twice daily. After 13 days the test was evaluated (100=total damage to plant; 0=no damage to plant).

[11] = tested on: ECHCG; assay: Pre-emergence biological efficacy, glasshouse
Description: as §1, with “one day” for “14 days”
as §3

[12] = tested on: IPOHE; assay: Pre-emergence biological efficacy, glasshouse
Description: as §1, with “one day” for “14 days”
as §3

[13] = tested on: LOLPE; assay: Pre-emergence biological efficacy, glasshouse
Description: as §1, with “one day” for “14 days”
as §3

[14] = tested on: SETFA; assay: Pre-emergence biological efficacy, glasshouse
Description: as §1, with “one day” for “14 days”
as §3

[15] = tested on: AMAPA; assay: Pre-emergence biological efficacy, glasshouse
Description: as §1, with “one day” for “14 days”
as §3

SMILES	damage to plant (100=total damage to plant; 0=no damage to plant), DIGSA [1]	damage to plant (100=total damage to plant; 0=no damage to plant), EPHHL [2]	damage to plant (100=total damage to plant; 0=no damage to plant), ECHCG [3]	damage to plant (100=total damage to plant; 0=no damage to plant), IPOHE [4]	damage to plant (100=total damage to plant; 0=no damage to plant), ELEIN [5]	damage to plant (100=total damage to plant; 0=no damage to plant), LOLPE [6]	damage to plant (100=total damage to plant; 0=no damage to plant), SETFA [7]	damage to plant (100=total damage to plant; 0=no damage to plant), AMAPA [8]	damage to plant (100=total damage to plant; 0=no damage to plant), CHEAL [9]	damage to plant (100=total damage to plant; 0=no damage to plant), EPHHL [10]	damage to plant (100=total damage to plant; 0=no damage to plant), ECHCG [11]	damage to plant (100=total damage to plant; 0=no damage to plant), IPOHE [12]	damage to plant (100=total damage to plant; 0=no damage to plant), LOLPE [13]	damage to plant (100=total damage to plant; 0=no damage to plant), SETFA [14]	damage to plant (100=total damage to plant; 0=no damage to plant), AMAPA [15]
CCOC(=O)C1(C)CC(c2cc(-n3c(OC)nc(C(F)(F)F)cc3=O)c(F)cc2Cl)=NO1 (racemic) [Compound 11, Ethyl 3-[2-chloro-4-fluoro-5-[2-methoxy-6-oxo-4-(trifluoromethyl)pyrimidin-1-yl]phenyl]-5-methyl-4H-isoxazole-5-carboxylate]	100	100	100	100	100	100	100	100	100	100	100	80	80	100	100
CCOC(=O)[C@@]1(C)CC(c2cc(-n3c(OC)nc(C(F)(F)F)cc3=O)c(F)cc2Cl)=NO1 [11 (R-enantiomer), Ethyl (5R)-3-[2-chloro-4-fluoro-5-[2-methoxy-6-oxo-4-(trifluoromethyl)pyrimidin-1-yl]phenyl]-5-methyl-4H-isoxazole-5-carboxylate]	100	90	100	100	100	100	80	100	100	50	90	70	10	90	10
CCOC(=O)[C@]1(C)CC(c2cc(-n3c(OC)nc(C(F)(F)F)cc3=O)c(F)cc2Cl)=NO1 [11 (S-enantiomer), ethyl (5S)-3-[2-chloro-4-fluoro-5-[2-methoxy-6-oxo-4-(trifluoromethyl)pyrimidin-1-yl]phenyl]-5-methyl-4H-isoxazole-5-carboxylate]	100	100	100	100	100	100	100	100	100	90	100	80	40	100	100
